{"source": "patent EP2815749A1", "about": "“Solid form of 4-amino-2-(2,6-dioxopiperidine-3-yl)isoindoline-1,3-dione having specified X-ray diffraction pattern” (IP Gesellschaft für Management mbH, priority 2013, dated 2014)", "key": {"[1]": {"test": "Polymorph screening: antisolvent addition", "type": "physicochemical", "conditions": "form obtained", "description": "(§1) Polymorph screening: A polymorph screen was conducted in the methylethyl ketone (MEK)/ water solvent systems, as well as in the acetonitrile (ACN), ACN/water and isopropyl acetate solvent systems. Polymorph screening techniques included crash cooling, solvent evaporation, antisolvent addition, and slurry experiments. Slurry experiments were performed on an IKA RCT hot plate with magnetic stirring set to 710 rpm. The temperature was controlled with an IKA ETS-D5 thermocouple. Solvent volumes were measured and transferred with Gibson Pipetteman volumetric pipettes. New forms that were identified as solvates were subjected to desolvation under two potential conditions: (1) drying in a vacuum oven at 40°C and (2) sitting undisturbed under ambient conditions in a fume hood. Physical characterization of all forms proceeded by X-ray powder diffraction (XRPD) and thermogravimetric analysis (TGA).\nExperiment 3: Antisolvent Addition: A saturated solution of Compound (VII), Form XX was made by slurrying either in 5 mL of solvent in the ACN, IP Ac, and MEK solvent systems, 2 mL total solvent for IP Ac/water, or 1 mL total solvent for the MEK/water solvent systems. After 24 hours, the residual solids were removed by filtration 20 mL of antisolvent was then quickly added to the saturated solutions to induce precipitation. Hexane was used as the antisolvent in the MEK and IP Ac solvent systems, and MTBE was used as the antisolvent in the ACN solvent systems, as a consequence of the immiscibility between ACN and hexane. The product precipitated as a white powder and the form was analyzed by XRPD and TGA. Table 9."}, "[2]": {"target": "T1, AF508-CFTR (Homo sapiens, UniProt P13569, DEL508-508)", "T1 construct": "expressed in transfected cells", "T1 sequence (P13569 with tags, fused parts or gaps DEL508-508)": "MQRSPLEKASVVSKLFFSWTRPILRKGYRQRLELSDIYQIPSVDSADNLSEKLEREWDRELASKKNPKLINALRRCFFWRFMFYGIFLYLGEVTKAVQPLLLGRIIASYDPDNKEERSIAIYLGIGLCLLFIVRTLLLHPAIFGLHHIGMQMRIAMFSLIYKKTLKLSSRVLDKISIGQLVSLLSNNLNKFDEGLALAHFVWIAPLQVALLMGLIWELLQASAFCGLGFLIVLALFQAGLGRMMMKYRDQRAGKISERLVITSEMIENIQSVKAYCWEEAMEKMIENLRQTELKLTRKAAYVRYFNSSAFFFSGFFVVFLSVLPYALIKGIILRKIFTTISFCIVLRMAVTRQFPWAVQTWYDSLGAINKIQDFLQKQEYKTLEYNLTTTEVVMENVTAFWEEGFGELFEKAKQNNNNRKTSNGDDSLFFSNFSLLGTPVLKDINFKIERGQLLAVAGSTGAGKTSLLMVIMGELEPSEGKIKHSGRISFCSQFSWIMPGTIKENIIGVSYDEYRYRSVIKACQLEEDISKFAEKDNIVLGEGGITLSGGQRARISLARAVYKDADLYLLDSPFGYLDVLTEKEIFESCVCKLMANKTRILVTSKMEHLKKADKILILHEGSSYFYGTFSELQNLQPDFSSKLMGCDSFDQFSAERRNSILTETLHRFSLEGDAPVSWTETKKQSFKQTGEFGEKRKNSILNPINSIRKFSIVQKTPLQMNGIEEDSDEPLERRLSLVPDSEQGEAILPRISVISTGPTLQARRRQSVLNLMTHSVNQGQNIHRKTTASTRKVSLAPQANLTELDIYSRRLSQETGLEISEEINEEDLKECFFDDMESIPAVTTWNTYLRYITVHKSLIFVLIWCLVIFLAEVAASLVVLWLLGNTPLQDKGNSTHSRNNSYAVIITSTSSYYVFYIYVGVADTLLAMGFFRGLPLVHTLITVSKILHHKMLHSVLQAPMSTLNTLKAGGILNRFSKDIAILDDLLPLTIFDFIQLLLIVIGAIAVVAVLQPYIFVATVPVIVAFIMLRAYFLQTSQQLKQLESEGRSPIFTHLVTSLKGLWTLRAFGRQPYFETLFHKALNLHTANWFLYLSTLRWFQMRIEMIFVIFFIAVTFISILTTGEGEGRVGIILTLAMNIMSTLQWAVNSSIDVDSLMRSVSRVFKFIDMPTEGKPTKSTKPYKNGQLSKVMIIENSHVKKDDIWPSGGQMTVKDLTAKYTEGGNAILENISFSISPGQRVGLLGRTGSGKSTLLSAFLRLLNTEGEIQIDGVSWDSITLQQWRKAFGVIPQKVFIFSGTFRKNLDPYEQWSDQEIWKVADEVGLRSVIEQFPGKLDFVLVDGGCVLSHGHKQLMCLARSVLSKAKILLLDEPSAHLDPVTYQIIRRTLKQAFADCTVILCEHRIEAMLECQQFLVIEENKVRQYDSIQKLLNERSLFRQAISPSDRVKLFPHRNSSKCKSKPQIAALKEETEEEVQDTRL", "test": "Membrane potential optical assay for potentiation (FLIPR III)", "type": "cell-based", "conditions": "relative efficacy", "from_the_text": "SINGLE CRYSTAL […] OF FORM T: Single crystal analysis was done on a crystal of Form T ({drug7r}) as described above. […] The driving force for the response is the creation of a chloride ion gradient in conjunction with channel activation by a single liquid addition step after the cells have previously been treated with compounds and subsequently loaded with a voltage sensing dye. Identification of Potentiator Compounds: To identify potentiators of AF508-CFTR, a double-addition HTS assay format was developed. […] The driving force for the response is a CI\" ion gradient in conjunction with channel activation with forskolin in a single liquid addition step using a fluorescent plate reader such as FLIPR III after the cells have previously been treated with potentiator compounds (or DMSO vehicle control) and subsequently loaded with a redistribution dye. […] HBE grown on Costar® Snapwell™ cell culture inserts were mounted in an Using chamber (Physiologic Instruments, Inc., San Diego, CA), and the transepithelial resistance and short-circuit current in the presence of a basolateral to apical CI\" gradient (Isc) were measured using a voltage-clamp system (Department of Bioengineering, University of Iowa, IA). […]"}, "[3]": {"test": "Polymorph screening: crash cooling", "type": "physicochemical", "description": "as §1\nExperiment 1: Crash Cooling: A saturated solution of Compound (VII), Form XX was made by preparing 1 mL slurries using acetonitrile (ACN), ACN- water (75:25), methylethyl ketone (MEK), or MEK-water (99:1, 90:10, or 80:20) in vials. After 24 hours in capped HPLC vials, the slurries were then filtered to remove residual solids. Approximately 2 additional milligrams of Compound (VII) was added to each vial containing a saturated solution. Next, the vials were heated to 70°C with stirring until all of the material was completely dissolved. Immediately after, the samples were submerged into an ice bath. The product, which precipitated as a white powder within 1 minute, was isolated by filtration and analyzed by XRPD and TGA."}, "[4]": {"test": "Polymorph screening: solvent evaporation", "type": "physicochemical", "conditions": "form obtained", "description": "as §1\nA saturated solution was made by slurrying Compound (VII), Form XX in 5 mL of solvent (ACN, isopropyl acetate (IP Ac), or MEK) or 1 mL of solvent for the MEK/Water solvent system. After 24 hours, the residual solids were removed by filtration. The saturated solutions were then subjected to rapid solvent evaporation by blowing nitrogen (N2) gas over the samples with a Pierce Model 18780 Reacti-Vap evaporating unit for four hours. The product precipitated as a white powder and the form was analyzed by XRPD and TGA."}, "[5]": {"test": "Compression test of pomalidomide Form A", "type": "physicochemical", "conditions": "2000-psi pressure for 1 minute", "description": "(§2) Hygroscopicity: Dynamic vapor sorption (DVS) analysis was carried out for two preparations of Form A using Surface Measurement Systems DVS. Representative DVS isotherm plots are presented in Figure 23 of WO2013/126326 and Figure 24 of WO2013/126326. In one study, the moisture uptake was less than about 0.14 % (wv'w) up to 95% relative humidity, indicative that pomalidomide Form A is not hygroscopic. […] At the end of desorption, the sample lost all of the weight it gained during the process of moisture sorption. […] The X-ray powder diffractograms are shown in Figure 25 and Figure 26 of WO2013/126326. […] The physical properties of the exposed form A were unchanged as compared to at the start of the study. Form A also appeared to be stable in acetone, acetonitrile, ethanol, ethyl acetate, methyl ethyl ketone, THF, toluene, ethanoi-water (1 : 1) or water at 40°C for at least 4 weeks. Compression Test: A compression test for Form A was carried out by applying 2000-psi pressure to the sample for 1 minute and then analyzing the sample by XRPD. […] Particle Size Distribution: In some embodiments, Form A was prepared as a white, irregular plate crystalline with a particle size D90 < 12 ? . Particle size distribution was determined for various lots of pomalidomide. Table 15: Particle Size Data for Pomalidomide Lots"}, "[6]": {"test": "Stability of pomalidomide Form A", "type": "physicochemical", "description": "as §2"}, "[7]": {"test": "Hygroscopicity of pomalidomide Form A (DVS)", "type": "physicochemical", "description": "Pomalidomide Polymorph Preparations: A weighed sample of pomalidomide (about 100 mg) was treated with 2 mL of a test solvent. The solvents used were either reagent or HPLC grade. The resulting mixture was agitated for at least 24 hours at 25°C. When all of the solids were dissolved by visual inspection, the estimated solubilities were calculated. The solubility was estimated from these experiments based on the total volume of solvent used to give a solution. The actual solubility may be greater than those calculated due to the use of a large amount of solvent or to a slow rate of dissolution. […] A known volume of filtrate was evaporated to dryness and the weight of the residue was measured. Equilibration and evaporation experiments were carried out by adding an excess of pomalidomide to 4 mL of a test solvent. The resulting mixture was agitated for at least 24 hours at 25°C and 50°C separately. […] All of the samples generated as described in the polymorph preparation study were analyzed by XRPD. […] Diffracted radiation was detected by peitier-cooled Si(Li) solid state detector. […] Approximately 2-5 mg of sample was placed into a DSC pan and the weight was accurately recorded. […] Hygroscopicity was determined on a Surface Measurement Systems DVS. Typically a sample size of 10-50 mg was loaded into the DVS instrument sample pan and the sample was analyzed on a DVS automated sorption analyzer at 25°C. […]"}, "[8]": {"conditions": "Solvent System Acetonitrile/H2O"}}, "data": [{"smiles": "CC(C)(C)c1cc(C(C)(C)C)c(NC(=O)c2c[nH]c3ccccc3c2=O)cc1O", "note": "[Compound (VII), N-[2,4-bis(1,1-dimethylethyl)-5-hydroxyphenyl]-1,4-dihydro-4-oxoquinoline-3-carboxamide]", "values": [{"measurement": "Antisolvent Addition", "setting": "[1]; Solvent System IPAc/H2O", "value": "Form T"}, {"measurement": "Antisolvent Addition", "setting": "[1]; Solvent System MEK", "value": "Form K"}, {"measurement": "Antisolvent Addition", "setting": "[1]; Solvent System MEK/H2O (80:20)", "value": "Form K"}, {"measurement": "Antisolvent Addition", "setting": "[1]; Solvent System MEK/H2O (90:10)", "value": "Form K"}, {"measurement": "Antisolvent Addition", "setting": "[1]; Solvent System MEK/H2O (99:1)", "value": "Form K"}, {"measurement": "Antisolvent Addition", "setting": "[1]; Solvent System Water", "value": "not soluble"}, {"measurement": "% Activity", "setting": "[2]", "value": "++ (\"++\" means between 25% to 100%)"}, {"measurement": "Solvate Polymorph", "setting": "[3]; Solvent System Acetonitrile", "value": "Form D"}, {"measurement": "Solvate Polymorph", "setting": "[3]; [8]", "value": "Form D"}, {"measurement": "Solvate Polymorph", "setting": "[3]; Solvent System MEK", "value": "Form E"}, {"measurement": "Solvate Polymorph", "setting": "[3]; Solvent System MEK/H2O (80:20)", "value": "Form E"}, {"measurement": "Solvate Polymorph", "setting": "[3]; Solvent System MEK/H2O (90:10)", "value": "Form E"}, {"measurement": "Solvate Polymorph", "setting": "[3]; Solvent System MEK/H2O (99:1)", "value": "Form E"}, {"measurement": "Solvate Polymorph", "setting": "[3]; Solvent System Water", "value": "not soluble"}, {"measurement": "Solvent Evaporation", "setting": "[4]; [8]", "value": "Form F"}, {"measurement": "Solvent Evaporation", "setting": "[4]; Solvent System IPAc", "value": "Form G Semi-crystalline"}, {"measurement": "Solvent Evaporation", "setting": "[4]; Solvent System IPAc/H2O", "value": "Form H"}, {"measurement": "Solvent Evaporation", "setting": "[4]; Solvent System MEK", "value": "Form I"}, {"measurement": "Solvent Evaporation", "setting": "[4]; Solvent System MEK/H2O (80:20)", "value": "Form E"}, {"measurement": "Solvent Evaporation", "setting": "[4]; Solvent System MEK/H2O (90:10)", "value": "Form E"}, {"measurement": "Solvent Evaporation", "setting": "[4]; Solvent System MEK/H2O (99:1)", "value": "Form J"}, {"measurement": "Solvent Evaporation", "setting": "[4]; Solvent System Water", "value": "not soluble"}]}, {"smiles": "Nc1cccc2c1C(=O)N(C1CCC(=O)NC1=O)C2=O", "note": "(stereo not drawn) [pomalidomide Form A, 4-amino-2-(2,6-dioxopiperidine-3-yl)isoindoline-1,3-dione]", "values": [{"measurement": "XRPD pattern after compression", "setting": "[5]", "value": "unchanged"}, {"measurement": "physical properties after exposure", "setting": "[6]; 40°C/75% RH environment for four weeks", "value": "unchanged"}, {"measurement": "time stable in solvent", "setting": "[6]; acetone, acetonitrile, ethanol, ethyl acetate, methyl ethyl ketone, THF, toluene, ethanol-water (1:1) or water at 40°C", "value": "at least 4 weeks"}, {"measurement": "mass change over the dry mass", "setting": "[7]; relative humidity increased from 0 to 95%, another study", "value": "less than 0.11%"}, {"measurement": "moisture uptake", "setting": "[7]; up to 95% relative humidity, one study", "value": "less than 0.14 % (wv'w)"}]}]}
